Data as given in paper PMC6792352, “Limited Chemical Structural Diversity Found to Modulate Thyroid Hormone Receptor in the Tox21 Chemical Library” (Environmental Health Perspectives, 2019).
Counter-ions that a name gives are not always drawn.

Assay: in vitro
Conditions: rat, gh3-tre-luc cells, AC50 (uM) modified / 1000

SMILES	CC50 at 24 h [µM]
C=CC(=O)Nc1cc2c(Nc3ccc(F)c(Cl)c3)ncnc2cc1OCCCN1CCOCC1 [Canertinib]	4.7
Nc1ccccc1[N+](=O)[O-] [2-Nitroaniline]	> 90
C=C1C[C@]23C[C@@]1(O)CC[C@H]2[C@@]12C=C[C@H](O)[C@@](C)(C(=O)O1)[C@H]2[C@@H]3C(=O)O [Gibberellic acid]	> 90
CC(C)CNCC(C)C [Diisobutylamine]	> 90
Cc1c(Cl)cccc1[N+](=O)[O-] [1-Chloro-2-methyl-3-nitrobenzene]	> 90
CC(=O)OCC(=O)[C@@]1(O)CC[C@H]2[C@@H]3CCC4=CC(=O)CC[C@]4(C)C3=CC[C@@]21C [Anecortave acetate]	> 50
O=C(O)c1cc(O)c2c(c1)C(=O)c1cccc(O)c1C2=O [Rhein]	> 90
CC(=O)C1CCOC1=O (centres unmarked) [3-Acetyldihydro-2(3H)-furanone]	> 100
CC(C)(N)C#N [2-Amino-2-methylpropionitrile]	> 90
Brc1cc(Oc2cc(Br)c(Br)c(Br)c2Br)c(Br)c(Br)c1Br [Octabromodiphenyl ether]	> 90
CC1(C)C(/C=C(\Cl)C(F)(F)F)C1C(=O)OC(C#N)c1cccc(Oc2ccccc2)c1 (stereo not drawn) [alpha-Cyhalothrin]	> 90
Cc1c(N)cccc1[N+](=O)[O-] [2-Methyl-3-nitroaniline]	> 90
c1coc(-c2nc3ccccc3[nH]2)c1 [Fuberidazole]	> 90
O=S1(=O)CC=CC1 [3-Sulfolene]	> 90
CC(CN1c2ccccc2Sc2ccc(S(=O)(=O)N(C)C)cc21)N(C)C (centres unmarked) [Fonazine]	21.4
CCCCCCCCCCCC[N+](C)(C)C [Dodecyltrimethylammonium chloride]	15.8
CC[N+]1(CC)CCC(=C(c2ccccc2)c2ccccc2)C1C (centres unmarked) [Prifinium bromide]	> 50
CCC(=O)/C=C/c1ccc(OC)cc1 [1-(4-Methoxyphenyl)-1-pentene-3-one]	> 90
CC(C)CCCC(C)CCCC(C)CCCCC(C)CCCC(C)CCCC(C)C (centres unmarked) [Squalane]	> 50
COC(=O)/C=C/c1ccccc1 [Methyl (E)-cinnamate]	> 90
C=CCc1ccccc1OCC(O)CNC(C)C (centres unmarked) [Alprenolol]	> 50

SMILES	CC50 at 24 h [µM]
Nc1cc(C(=O)O)ccc1Cl [3-Amino-4-chlorobenzoic acid]	> 90
c1ccc2c(c1)CCCC2 [Tetralin]	> 90
Cc1nc(N)nc(N)n1 [6-Methyl-1,3,5-triazine-2,4-diamine]	> 90
O=C(O)[C@@H]1[C@H]2C[C@H]3c4[nH]c5ccccc5c4CCN3C[C@@H]2CC[C@@H]1O [Yohimbic acid monohydrate]	> 20
CCn1cc(C(=O)O)c(=O)c2cc(F)c(N3CCNCC3)nc21 [Enoxacin]	> 20
C=C(C)C(=O)OCCCCCCCCCC [Decyl methacrylate]	> 90
Nc1cc2c3c(c1)C(c1ccccc1)=N[C@@H](NC(=O)c1cccnc1)C(=O)N3CC2 [CI-1044]	> 90
CCCCCCCCCCCCCCCCCC[N+](C)(C)Cc1ccccc1 [N,N-Dimethyl-N-benzyl-N-octadecylammonium chloride]	11.4
COc1ccc(CNCC(O)COc2ccc3[nH]c(=O)ccc3c2)cc1OC (centres unmarked) [Toborinone]	> 50
O=C(OCCOCCO)c1ccccc1Nc1cccc(C(F)(F)F)c1 [Etofenamate]	> 20
CC(Cc1ccccc1)(NC(=O)CN)c1ccccc1 (centres unmarked) [Remacemide hydrochloride]	> 50
Clc1cc(Cl)c(Cl)nc1Cl [2,3,5,6-Tetrachloropyridine]	> 90
CC(Cc1ccc(O)cc1)NCC(O)c1cc(O)cc(O)c1 (centres unmarked) [Fenoterol hydrobromide]	> 50
O[C@@H]1CO[C@H]2[C@@H]1OC[C@@H]2O [Isosorbide]	> 50
C/C(=N\Cc1ccccc1)c1ccccc1O [Oletimol]	> 50
Nc1nc(F)nc2c1ncn2[C@@H]1O[C@H](CO)[C@@H](O)[C@@H]1O [Fludarabine]	52
CCOc1nc(F)cc2nc(S(=O)(=O)Nc3c(Cl)cccc3Cl)nn12 [Diclosulam]	> 90
CCC(C)CO (centres unmarked) [2-Methyl-1-butanol]	> 100
C/C=C(\C)C(=O)OCC/C=C\CC [(3Z)-Hex-3-en-1-yl (2E)-2-methylbut-2-enoate]	> 90
CCCCNCC(O)c1ccc(O)cc1 (centres unmarked) [Bamethan]	> 50
